This note sets out measurements from patent US9394250B2, “Substituted pyrrolidines as factor xia inhibitors for the treatment thromboembolic diseases” (ONO PHARMACEUTICAL CO., LTD., priority 2012, dated 2016).

Each structure is given as a SMILES string. Structures can show the parent of a compound that is named as a salt.

Holding throughout (type): biochemical
One assay concerns the target Human Factor XIa (Homo sapiens (Human), UniProt P03951). In words: Factor XIa enzyme activity, chromogenic substrate S-2366. As to conditions: purified human Factor XIa 0.1 U/mL, 300 μM S-2366, pH7.4; read-out: In vitro FXIa inhibitory activity IC50. As for the experimental part:
(§1) Inhibitory activities of compounds of the present invention against factor XIa, Xa, XIIa, IXa, VIIa, plasma kallikrein or thrombin were evaluated using appropriate purified proteases and synthetic substrates. The rate of hydrolysis of the chromogenic substrate by the relevant protease was continuously measured at 405 nm. Inhibitory activity against each enzyme was calculated as % inhibition using the equation described below. % Inhibition=[[(rate without compound)−(rate with compound)]/(rate without compound)]×100%. Each half maximal inhibitory concentration (IC50) value was determined by plotting the concentration of compound of the invention against the % inhibition. (1-1) Factor XIa Enzyme Activity
Human Factor XIa (Haematologic Technologies Inc.) activity was measured at an enzyme concentration of 0.1 U/mL in 150 mM NaCl, 5 mM KCl, 1 mg/mL PEG6000, 50 mM HEPES-NaOH (pH7.4) with 300 μM S-2366 (pyroGlu-Pro-Arg-pNA, Chromogenix).

In another assay the target is human thrombin (Homo sapiens (Human), UniProt P00734). In words: Thrombin enzyme activity, chromogenic substrate S-2366. As to conditions: human thrombin 0.12 U/mL, 300 μM S-2366, pH7.4; read-out: In vitro Thrombin inhibitory activity IC50. The protocol:
as §1
(§2) Human Factor Xa (American Diagnostica Inc.) and human thrombin (Sigma) activities were measured at the enzyme concentrations of 0.18 U/mL and 0.12 U/mL, respectively in the same buffer containing 150 mM NaCl, 2 mg/mL PEG6000, 50 mM Tris-HCl (pH7.4), except that the reactions were started with 300 μM S-2222 ([…], Chromogenix) and 300 μM S-2366, respectively.

The next assay has as its target Human Factor Xa (Homo sapiens (Human), UniProt P00742). The assay can be described thus: Factor Xa enzyme activity, chromogenic substrate S-2222. As to conditions: human Factor Xa 0.18 U/mL, 300 μM S-2222, pH7.4; read-out: In vitro FXa inhibitory activity IC50. The protocol: as §1, §2

Human Factor XIa, sequence (P03951 388-625): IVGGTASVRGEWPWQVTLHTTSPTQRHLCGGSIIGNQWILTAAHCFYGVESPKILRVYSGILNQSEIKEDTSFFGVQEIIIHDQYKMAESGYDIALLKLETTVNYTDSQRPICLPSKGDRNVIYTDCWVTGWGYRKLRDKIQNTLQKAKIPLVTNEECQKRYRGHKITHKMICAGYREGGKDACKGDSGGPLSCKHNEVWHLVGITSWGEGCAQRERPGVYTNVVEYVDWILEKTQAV
Human Factor XIa, sequence (P03951 19-387 partner): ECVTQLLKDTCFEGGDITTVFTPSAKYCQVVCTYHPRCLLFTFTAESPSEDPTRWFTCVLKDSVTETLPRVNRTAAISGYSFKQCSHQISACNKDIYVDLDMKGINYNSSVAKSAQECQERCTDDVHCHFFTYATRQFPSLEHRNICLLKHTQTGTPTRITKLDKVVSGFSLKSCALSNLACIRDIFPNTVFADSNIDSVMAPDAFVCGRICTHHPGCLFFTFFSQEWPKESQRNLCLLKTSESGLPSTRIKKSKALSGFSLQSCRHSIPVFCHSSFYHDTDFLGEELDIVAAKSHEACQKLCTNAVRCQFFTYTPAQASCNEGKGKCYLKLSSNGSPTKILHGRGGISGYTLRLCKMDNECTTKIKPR
Human Factor Xa, sequence (P00742 235-488): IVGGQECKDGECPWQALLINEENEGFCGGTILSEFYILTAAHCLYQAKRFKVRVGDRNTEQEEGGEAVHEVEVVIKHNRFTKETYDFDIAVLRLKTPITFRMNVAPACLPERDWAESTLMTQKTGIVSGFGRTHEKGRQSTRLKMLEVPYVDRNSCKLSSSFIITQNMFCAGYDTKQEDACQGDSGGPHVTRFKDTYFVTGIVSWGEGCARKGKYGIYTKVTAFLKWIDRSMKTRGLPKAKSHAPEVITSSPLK
Human Factor Xa, sequence (P00742 41-179 partner): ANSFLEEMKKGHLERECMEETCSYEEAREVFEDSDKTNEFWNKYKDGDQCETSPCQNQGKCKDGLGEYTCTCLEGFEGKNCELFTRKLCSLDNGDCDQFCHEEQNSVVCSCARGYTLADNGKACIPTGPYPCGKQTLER

A word on the IC50: it is the concentration that gives 50% inhibition. Turning to `COC(=O)Nc1ccc(-c2[nH]c([C@@H]3C[C@H](N4CCN(S(C)(=O)=O)CC4)CN3C(=O)C3CCN(C(=N)N)CC3)nc2Cl)cc1` [Example 99, methyl [4-(2-{(2S,4S)-1-(1-carbamimidoyl-4-piperidinyl)carbonyl]-4-[4-(methylsulfonyl)-1-piperazinyl-2-pyrrolidinyl}-4-chloro-1H-imidazol-5-yl)phenyl]carbamate trihydrochloride], the results for the IC50 on Human Factor XIa, at human thrombin and on Human Factor Xa were 0.0012 µM, 84 µM and above 100 µM, respectively.
The matching figures for `COC(=O)Nc1ccc(-c2[nH]c([C@@H]3C[C@H](C4CCN(S(C)(=O)=O)CC4)CN3C(=O)N3CCN(C(=N)N)CC3)nc2Cl)cc1` [Example 88, methyl [4-(2-{(2S,4R)-1-[(4-carbamimidoyl-1-piperazinyl)carbonyl]-4-[1-(methylsulfonyl)-4-piperidinyl]-2-pyrrolidinyl}-4-chloro-1H-imidazol-5-yl)phenyl]carbamate bis(trifluoroacetate)]: 0.0054 µM, 57 µM and above 100 µM.
The matching figures for `O=C(Nc1ccccc1)[C@@H]1C[C@H](N2CCN(S(=O)(=O)c3ccccc3)CC2)CN1C(=O)/C=C/c1cc(Cl)ccc1-n1cnnn1` [Example 39, (2S,4S)-1-{(2E)-3-[5-chloro-2-(1H-tetrazol-1-yl)phenyl]-2-propenoyl}-N-phenyl-4-[4-(phenylsulfonyl)-1-piperazinyl]-2-pyrrolidinecarboxamide]: 0.078 µM, above 100 µM and above 100 µM.
Taken in the same sequence, the figures for `O=C(Nc1ccc2nn[nH]c2c1)[C@@H]1C[C@H](N2CCOCC2)CN1C(=O)/C=C/c1cc(Cl)ccc1-n1cnnn1` [Example 43, (2S,4S)—N-(1H-benzotriazol-6-yl)-1-{(2E)-3-[5-chloro-2-(1H-tetrazol-1-yl)phenyl]-2-propenoyl}-4-(4-morpholinyl)-2-pyrrolidinecarboxamide trifluoroacetate] were 0.011 µM, above 100 µM and above 100 µM.
As for `COC(=O)Nc1ccc(-c2[nH]c([C@@H]3C[C@H](C4CCN(S(C)(=O)=O)CC4)CN3C(=O)[C@H]3CC[C@H]([C@H](C)N)CC3)nc2Cl)cc1` [Example 86, methyl [4-(2-{(2S,4R)-1-({trans-4-[(1S)-1-aminoethyl]cyclohexyl}carbonyl)-4-[1-(methylsulfonyl)-4-piperidinyl]-2-pyrrolidinyl}-4-chloro-1H-imidazol-5-yl)phenyl]carbamate bis(trifluoroacetate)], the figures for the half-maximal inhibitory concentration (IC50) at Human Factor XIa, on human thrombin and on Human Factor Xa were 0.0099 µM, above 100 µM and above 100 µM, respectively.
For `CS(=O)(=O)N1CCN([C@H]2C[C@@H](C(=O)Nc3ccc(C(=O)O)cc3)N(C(=O)c3ccc(C(=N)N)cc3)C2)CC1` [Example 20, 4-[({(2S,4S)-1-(4-carbamimidoylbenzoyl)-4-[4-(methylsulfonyl)-1-piperazinyl]-2-pyrrolidinyl}carbonyl)amino]benzoic acid bis(trifluoroacetate)], the IC50 is 0.0032 µM on Human Factor XIa, above 100 µM on human thrombin and above 100 µM at Human Factor Xa.
Take `COC(=O)Nc1ccc(-c2[nH]c([C@@H]3C[C@H](C4CCN(S(C)(=O)=O)CC4)CN3C(=O)/C=C/c3cc(Cl)ccc3-n3cnnn3)nc2Cl)cc1` [Example 94, methyl [4-(4-chloro-2-{(2S,4R)-1-{(2E)-3-[5-chloro-2-(1H-tetraol-1-yl)phenyl]-2-propenoyl}-4-[1-(methylsulfonyl)-4-piperidinyl]-2-pyrrolidinyl}-1H-imidazol-5-yl)phenyl]carbamate]: the values for the IC50 on Human Factor XIa, at human thrombin and on Human Factor Xa were 0.0054 µM, above 33 µM and above 33 µM, respectively.
For the molecule `CS(=O)(=O)N1CCN([C@H]2C[C@@H](C(=O)Nc3ccc(C(=O)O)cc3)N(C(=O)C3CCN(C(=N)N)CC3)C2)CC1` [Example 9, 4-[({(2S,4S)-1-[(1-carbamimidoyl-4-piperidinyl)carbonyl]-4-[4-(methylsulfonyl)-1-piperazinyl]-2-pyrrolidinyl}carbonyl)amino]benzoic acid bis(trifluoroacetate)], the results for the IC50 at Human Factor XIa, at human thrombin and on Human Factor Xa were 0.017 µM, above 100 µM and above 100 µM, respectively.
`Cn1cc(Cl)c2c(F)c(C(=O)N3C[C@@H](C4CCN(S(C)(=O)=O)CC4)C[C@H]3C(=O)Nc3ccc(C(=O)O)cc3)ccc21` [Example 93, 4-[({(2S,4R)-1-[(3-chloro-4-fluoro-1-methyl-1H-indol-5-yl)carbonyl]-4-[1-(methylsulfonyl)-4-piperidinyl]-2-pyrrolidinyl}carbonyl)amino]benzoic acid]: the IC50 is 0.018 µM on Human Factor XIa, above 100 µM at human thrombin and above 100 µM on Human Factor Xa.
Take `O=C(O)c1ccc(NC(=O)[C@@H]2C[C@H](N3CCOCC3)CN2C(=O)/C=C/c2cc(Cl)ccc2-n2cnnn2)cc1` [Example 37, 4-({[(2S,4S)-1-{(2E)-3-[5-chloro-2-(1H-tetrazol-1-yl)phenyl]-2-propenoyl}-4-(4-morpholinyl)-2-pyrrolidinyl]carbonyl}amino)benzoic acid trifluoroacetate]: the figures for the half-maximal inhibitory concentration (IC50) on Human Factor XIa, on human thrombin and on Human Factor Xa were 0.013 µM, above 100 µM and above 100 µM, respectively.
`COC(=O)Nc1ccc(-c2cnc([C@@H]3C[C@H](C4CCN(S(C)(=O)=O)CC4)CN3C(=O)C3CCN(C(=N)N)CC3)[nH]2)cc1` [Example 69, methyl [4-(2-{(2S,4R)-1-[(1-carbamimidoyl-4-piperidinyl)carbonyl]-4-[1-(methylsulfonyl)-4-piperidinyl]-2-pyrrolidinyl}-1H-imidazol-5-yl)phenyl]carbamate dihydrochloride]: the half-inhibitory concentration (IC50) at Human Factor XIa was 0.0074 µM; on human thrombin, above 100 µM; at Human Factor Xa it was above 100 µM.
In the case of `COC(=O)Nc1ccc(-c2[nH]c([C@@H]3C[C@H](C4CCN(S(C)(=O)=O)CC4)CN3C(=O)[C@H]3CC[C@H](CN)CC3)nc2Cl)cc1` [Example 96, methyl [4-(2-{(2S,4R)-1-{[4-(aminomethyl)cyclohexyl]carbonyl}-4-[1-(methylsulfonyl)-4-piperidinyl]-2-pyrrolidinyl}-4-chloro-1H-imidazol-5-yl)phenyl]carbamate bis(trifluoroacetate)], the results for the half-maximal inhibitory concentration (IC50) on Human Factor XIa, at human thrombin and on Human Factor Xa were 0.0042 µM, above 100 µM and above 100 µM, respectively.
Turning to `COC(=O)Nc1ccc(-c2[nH]c([C@@H]3C[C@H](C4CCN(S(C)(=O)=O)CC4)CN3C(=O)c3ccc(NC(=N)N)cc3)nc2Cl)cc1` [Example 79, methyl [4-(2-{(2S,4R)-1-(4-carbamimidamidobenzoyl)-4-[1-(methylsulfonyl)-4-piperidinyl]-2-pyrrolidinyl}-4-chloro-1H-imidazol-5-yl)phenyl]carbamate bis(trifluoroacetate)], the concentration for half-maximal inhibition (IC50) is 0.0065 µM at Human Factor XIa, 40 µM at human thrombin and above 100 µM on Human Factor Xa.
For the molecule `COC(=O)Nc1ccc(-c2[nH]c([C@@H]3C[C@H](C4CCN(S(C)(=O)=O)CC4)CN3C(=O)C3CCN(C(=N)N)CC3)nc2Cl)cc1` [Example 71, methyl [4-(2-{(2S,4R)-1-[(1-carbamimidoyl-4-piperidinyl)carbonyl]-4-[1-(methylsulfonyl)-4-piperidinyl]-2-pyrrolidinyl}-4-chloro-1H-imidazol-5-yl)phenyl]carbamate dihydrochloride], the IC50 on Human Factor XIa is 0.0022 µM; at human thrombin, 94 µM; on Human Factor Xa it was above 100 µM.
With `C[C@H]1CN([C@H]2C[C@@H](C(=O)Nc3ccccc3)N(C(=O)/C=C/c3cc(Cl)ccc3-n3cnnn3)C2)CCN1S(N)(=O)=O` [Example 57, (2S,4S)-1-{(2E)-3-[5-chloro-2-(1H-tetrazol-1-yl)phenyl]-2-propenoyl}-4-[(3S)-3-methyl-4-sulfamoyl-1-piperazinyl]-N-phenyl-2-pyrrolidinecarboxamide trifluoroacetate], the IC50 on Human Factor XIa is 0.027 µM; on human thrombin, above 100 µM; on Human Factor Xa it was above 100 µM.
Regarding `COC(=O)Nc1ccc(-c2cnc([C@@H]3C[C@H](N4CCN(S(C)(=O)=O)CC4)CN3C(=O)C3CCN(C(=N)N)CC3)[nH]2)cc1` [Example 98, methyl [4-(2-(2S,4S)-1-[(1-carbamimidoyl-4-piperidinyl)carbonyl]-4-[4-(methylsulfonyl)-1-piperazinyl]-2-pyrrolidinyl-1H-imidazol-5-yl)phenyl]carbamate trihydrochloride], the concentration for half-maximal inhibition (IC50) is 0.0023 µM at Human Factor XIa, above 100 µM on human thrombin and above 100 µM on Human Factor Xa.
With `CS(=O)(=O)N1CCC([C@H]2C[C@@H](C(=O)Nc3ccc(C(=O)O)cc3)N(C(=O)c3ccc(C(=N)N)cc3)C2)CC1` [Example 111, 4-[({(2S,4R)-1-(4-carbamimidoylbenzoyl-4-[1-(methylsulfonyl)-4-piperidinyl]-2-pyrrolidinyl}carbonyl)amino]benzoic acid hydrochloride], the half-maximal inhibitory concentration (IC50) is 0.0085 µM on Human Factor XIa and above 100 µM on human thrombin.
